According to PubChem BioAssay (NCI):
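The compound was tested at five concentrations on cells cultured in 96-well plates, with a 48-hour exposure period. GI50 = concentration required for 50% inhibition of growth. The concentration for full growth arrest is given as TGI.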

Experiments:
Test in all cases: growth of human tumour cells (NCI), 48 h
[1] = system: NCI/ADR-RES ovarian
[2] = system: MDA-MB-435
[3] = system: PC-3 prostate
[4] = system: K-562 leukemia
[5] = system: HCC-2998 colon
[6] = system: OVCAR-4 ovarian
[7] = system: OVCAR-5 ovarian
[8] = system: HL-60(TB) leukemia
[9] = system: HS 578T breast
[10] = system: MALME-3M melanoma
[11] = system: SK-MEL-5 melanoma
[12] = system: COLO 205 colon
[13] = system: SK-MEL-28 melanoma
[14] = system: A549 NSCLC
[15] = system: SNB-19 CNS
[16] = system: UO-31 renal
[17] = system: U251 CNS
[18] = system: NCI-H460 lung
[19] = system: RPMI-8226 leukemia
[20] = system: KM12 colon
[21] = system: OVCAR-3 ovarian
[22] = system: UACC-62 melanoma
[23] = system: MOLT-4 leukemia
[24] = system: IGROV1 ovarian
[25] = system: EKVX NSCLC
[26] = system: LOX IMVI melanoma
[27] = system: TK-10 renal
[28] = system: SNB-75 CNS
[29] = system: UACC-257 melanoma
[30] = system: SN12C renal
[31] = system: SF-295 CNS
[32] = system: RXF 393 renal
[33] = system: SR leukemia
[34] = system: MCF7 breast
[35] = system: HT29 colon
[36] = system: NCI-H522 lung
[37] = system: HOP-92 NSCLC
[38] = system: T-47D breast
[39] = system: SK-OV-3 ovarian
[40] = system: OVCAR-8 ovarian
[41] = system: A498 renal
[42] = system: BT-549 breast
[43] = system: MDA-MB-231 breast
[44] = system: CAKI-1 renal
[45] = system: CCRF-CEM leukemia
[46] = system: SF-539 CNS
[47] = system: NCI-H226 lung
[48] = system: SF-268 CNS
[49] = system: NCI-H23 lung
[50] = system: SK-MEL-2 melanoma
[51] = system: HCT-15 colon
[52] = system: SW-620 colon
[53] = system: ACHN renal
[54] = system: HOP-62 NSCLC
[55] = system: 786-0 renal
[56] = system: DU-145 prostate
[57] = system: M14 melanoma
[58] = system: HCT-116 colon

COc1cc(/C=C2\C(=O)Nc3ccc(O)cc32)cc(OC)c1OC
GI50 [1]: 17.8 µM | TGI [1]: 59 µM | GI50 [2]: 3.96 µM | TGI [2]: 17.1 µM | GI50 [3]: 2.4 µM | TGI [3]: 19.1 µM | GI50 [4]: 3.83 µM | TGI [4]: > 100 µM | GI50 [5]: 7.46 µM | TGI [5]: 20.9 µM | GI50 [6]: 11.1 µM | TGI [6]: 55.7 µM | GI50 [7]: 17.5 µM | TGI [7]: 33.5 µM | GI50 [8]: 6.11 µM | TGI [8]: 40.7 µM | GI50 [9]: 13.5 µM | TGI [9]: > 100 µM | GI50 [10]: 17.9 µM | TGI [10]: 44.4 µM | GI50 [11]: 6.31 µM | TGI [11]: 25.1 µM | GI50 [12]: 20 µM | TGI [12]: 59.6 µM | GI50 [13]: 14.1 µM | TGI [13]: 30.2 µM | GI50 [14]: 21 µM | TGI [14]: 88 µM | GI50 [15]: 11.9 µM | TGI [15]: 40.6 µM | GI50 [16]: 12.1 µM | TGI [16]: 33.3 µM | GI50 [17]: 4.08 µM | TGI [17]: 16.8 µM | GI50 [18]: 8.69 µM | TGI [18]: 35.9 µM | GI50 [19]: 3.53 µM | TGI [19]: 21.3 µM | GI50 [20]: 17 µM | TGI [20]: > 100 µM | GI50 [21]: 6.44 µM | TGI [21]: 28.3 µM | GI50 [22]: 11.7 µM | TGI [22]: 26.6 µM | GI50 [23]: 1.24 µM | TGI [23]: 28.5 µM | GI50 [24]: 12.1 µM | TGI [24]: 35.7 µM | GI50 [25]: 18.6 µM | TGI [25]: 59 µM | GI50 [26]: 4.53 µM | TGI [26]: 16.6 µM | GI50 [27]: 40 µM | TGI [27]: > 100 µM | GI50 [28]: 8.54 µM | TGI [28]: 33.7 µM | GI50 [29]: 8.48 µM | TGI [29]: 22.1 µM | GI50 [30]: 15.5 µM | TGI [30]: 72.2 µM | GI50 [31]: 26.4 µM | TGI [31]: > 100 µM | GI50 [32]: 2.19 µM | TGI [32]: 5.94 µM | GI50 [33]: 1.75 µM | TGI [33]: 9.5 µM | GI50 [34]: 8.59 µM | TGI [34]: > 100 µM | GI50 [35]: 10.3 µM | TGI [35]: 25.3 µM | GI50 [36]: 4.24 µM | TGI [36]: 17.1 µM | GI50 [37]: 7.92 µM | TGI [37]: 30.2 µM | GI50 [38]: 7.55 µM | TGI [38]: > 100 µM | GI50 [39]: 27.8 µM | TGI [39]: 98.1 µM | GI50 [40]: 18.3 µM | TGI [40]: 65.6 µM | GI50 [41]: 18.3 µM | TGI [41]: 40.6 µM | GI50 [42]: 11 µM | TGI [42]: 29.4 µM | GI50 [43]: 8.06 µM | TGI [43]: 37 µM | GI50 [44]: 23.1 µM | TGI [44]: 83.1 µM | GI50 [45]: 4.34 µM | TGI [45]: 34.4 µM | GI50 [46]: 5.86 µM | TGI [46]: 81.5 µM | GI50 [47]: 21.1 µM | TGI [47]: 54.4 µM | GI50 [48]: 6.49 µM | TGI [48]: 26.8 µM | GI50 [49]: 6.76 µM | TGI [49]: 24.8 µM | GI50 [50]: 13.6 µM | TGI [50]: 34.7 µM | GI50 [51]: 13.1 µM | TGI [51]: 41 µM | GI50 [52]: 10.5 µM | TGI [52]: > 100 µM | GI50 [53]: 15.9 µM | TGI [53]: 78.6 µM

Cc1ccccc1C1N=C2Oc3ccccc3C=C2C(=O)N1 (stereo not given)
GI50 [1]: 2.96 µM | TGI [1]: > 87.8 µM | GI50 [2]: 0.244 µM | TGI [2]: 0.824 µM | GI50 [3]: 0.86 µM | TGI [3]: > 100 µM | GI50 [4]: 4.01 µM | TGI [4]: > 100 µM | GI50 [5]: 4.69 µM | TGI [5]: > 58.7 µM | GI50 [6]: 11.8 µM | TGI [6]: > 100 µM | GI50 [7]: 2.51 µM | TGI [7]: > 100 µM | GI50 [8]: 2.42 µM | TGI [8]: 17.7 µM | GI50 [9]: 2.82 µM | TGI [9]: > 100 µM | GI50 [54]: 3.39 µM | TGI [54]: > 100 µM | GI50 [55]: 14.1 µM | TGI [55]: > 100 µM | GI50 [11]: 0.674 µM | TGI [11]: > 100 µM | GI50 [12]: 1.46 µM | TGI [12]: 15 µM | GI50 [13]: 4.57 µM | TGI [13]: > 100 µM | GI50 [56]: 2.09 µM | TGI [56]: > 100 µM | GI50 [14]: 3.55 µM | TGI [14]: > 100 µM | GI50 [15]: > 42.9 µM | TGI [15]: > 100 µM | GI50 [16]: 7.5 µM | TGI [16]: > 100 µM | GI50 [17]: 11.7 µM | TGI [17]: > 100 µM | GI50 [18]: 4.34 µM | TGI [18]: > 100 µM | GI50 [19]: 62.9 µM | TGI [19]: > 100 µM | GI50 [20]: 15 µM | TGI [20]: > 100 µM | GI50 [21]: 0.621 µM | TGI [21]: 2.69 µM | GI50 [22]: 1.48 µM | TGI [22]: > 100 µM | GI50 [23]: 19 µM | TGI [23]: > 100 µM | GI50 [57]: 0.826 µM | TGI [57]: 7.66 µM | GI50 [24]: 9.85 µM | TGI [24]: > 100 µM | GI50 [26]: 30.5 µM | TGI [26]: > 100 µM | GI50 [58]: 6.37 µM | TGI [58]: > 100 µM | GI50 [27]: 8.06 µM | TGI [27]: > 100 µM | GI50 [28]: 1.51 µM | TGI [28]: > 100 µM | GI50 [29]: > 100 µM | TGI [29]: > 100 µM | GI50 [30]: 8.33 µM | TGI [30]: > 100 µM | GI50 [31]: 1.46 µM | TGI [31]: > 25.9 µM | GI50 [32]: 0.488 µM | GI50 [33]: 14.5 µM | TGI [33]: > 88.3 µM | GI50 [34]: 0.793 µM | TGI [34]: > 100 µM | GI50 [35]: 4.48 µM | TGI [35]: > 100 µM | GI50 [36]: 0.556 µM | TGI [36]: 3.32 µM | GI50 [38]: 1.58 µM | TGI [38]: > 100 µM | GI50 [39]: 0.66 µM | TGI [39]: > 100 µM | GI50 [40]: 10.9 µM | TGI [40]: > 100 µM | GI50 [41]: 0.347 µM | TGI [41]: 2.58 µM | GI50 [42]: 7.32 µM | TGI [42]: > 100 µM | GI50 [43]: 1.81 µM | TGI [43]: 33.3 µM | GI50 [44]: 5.46 µM | TGI [44]: > 100 µM | GI50 [45]: 4.63 µM | TGI [45]: > 100 µM | GI50 [46]: 1.75 µM | TGI [46]: 6.88 µM | GI50 [47]: > 100 µM | TGI [47]: > 100 µM | GI50 [48]: 9.2 µM | TGI [48]: > 100 µM | GI50 [49]: 2.5 µM | TGI [49]: > 100 µM | GI50 [50]: 0.535 µM | TGI [50]: > 100 µM | GI50 [51]: 2.05 µM | TGI [51]: > 100 µM | GI50 [52]: 4.74 µM | TGI [52]: > 100 µM | GI50 [53]: 2.2 µM | TGI [53]: > 100 µM
